Patent publication US11629143B2, “HipK4 inhibitors and uses thereof” (Vibliome Therapeutics, LLC, priority 2020, dated 2023)

Legend:
Assay in all cases: Kinase panel (mobility shift)
Type in all cases: biochemical
AXL = biological target: T1, AXL (Homo sapiens, UniProt P30530)
T1 sequence (P30530 26-894): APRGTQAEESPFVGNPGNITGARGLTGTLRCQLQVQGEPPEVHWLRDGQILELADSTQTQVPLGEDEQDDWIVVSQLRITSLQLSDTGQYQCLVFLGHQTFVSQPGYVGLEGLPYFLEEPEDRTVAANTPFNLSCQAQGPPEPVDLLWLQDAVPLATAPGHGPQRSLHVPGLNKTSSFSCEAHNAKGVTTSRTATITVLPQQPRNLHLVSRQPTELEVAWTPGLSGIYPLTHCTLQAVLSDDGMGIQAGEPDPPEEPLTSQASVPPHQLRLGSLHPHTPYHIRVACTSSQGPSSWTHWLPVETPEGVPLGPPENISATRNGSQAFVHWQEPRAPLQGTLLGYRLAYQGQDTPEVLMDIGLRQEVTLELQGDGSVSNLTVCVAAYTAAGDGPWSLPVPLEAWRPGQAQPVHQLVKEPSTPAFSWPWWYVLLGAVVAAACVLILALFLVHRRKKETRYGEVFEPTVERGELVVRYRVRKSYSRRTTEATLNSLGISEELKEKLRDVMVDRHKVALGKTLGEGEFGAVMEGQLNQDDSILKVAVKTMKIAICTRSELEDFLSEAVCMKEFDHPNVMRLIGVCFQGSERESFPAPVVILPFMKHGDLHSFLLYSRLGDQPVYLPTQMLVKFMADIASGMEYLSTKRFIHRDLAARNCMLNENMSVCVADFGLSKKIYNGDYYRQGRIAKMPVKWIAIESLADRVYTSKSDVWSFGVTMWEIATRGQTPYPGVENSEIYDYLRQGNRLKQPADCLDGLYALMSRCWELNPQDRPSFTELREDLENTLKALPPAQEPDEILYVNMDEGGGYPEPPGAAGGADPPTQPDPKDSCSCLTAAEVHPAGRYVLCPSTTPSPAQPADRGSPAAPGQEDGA
Experimental: (§1) The disclosed compounds were tested for activity against a panel of 299 kinases. The target enzyme was incubated with fluorescently labeled substrate and test compounds in a standardized reaction mixture in 384 well plates. Upon termination of the reaction, samples were introduced onto microfluidic chips. The samples migrated through channels in the chips and product and substrate were separated based on the difference in their charge (electrophoretic mobility shift). Enzyme activity was measured by direct comparison of the fluorescence in the product and substrate peaks. […] In the tables A=95% or greater at 5 um, B=90%-94% at 5 um, and C=80%-89% at 5 um. [note to draft: we included category D for 50-79 and category E is less than 50%. Feel free to remove if not needed)

BRK = BRK (Homo sapiens, UniProt Q13882)
Experimental: as §1

EPH-A4 = EPH-A4 (Homo sapiens, UniProt P54764)
Experimental: as §1

HIPK3 = HIPK3 (Homo sapiens, UniProt Q9H422)
Experimental: as §1

KIT = KIT (Homo sapiens, UniProt P10721)
Experimental: as §1

LCK = LCK (Homo sapiens, UniProt P06239)
Experimental: as §1

MUSK = biological target: T2, MUSK (Homo sapiens, UniProt O15146)
T2 sequence (O15146 24-869): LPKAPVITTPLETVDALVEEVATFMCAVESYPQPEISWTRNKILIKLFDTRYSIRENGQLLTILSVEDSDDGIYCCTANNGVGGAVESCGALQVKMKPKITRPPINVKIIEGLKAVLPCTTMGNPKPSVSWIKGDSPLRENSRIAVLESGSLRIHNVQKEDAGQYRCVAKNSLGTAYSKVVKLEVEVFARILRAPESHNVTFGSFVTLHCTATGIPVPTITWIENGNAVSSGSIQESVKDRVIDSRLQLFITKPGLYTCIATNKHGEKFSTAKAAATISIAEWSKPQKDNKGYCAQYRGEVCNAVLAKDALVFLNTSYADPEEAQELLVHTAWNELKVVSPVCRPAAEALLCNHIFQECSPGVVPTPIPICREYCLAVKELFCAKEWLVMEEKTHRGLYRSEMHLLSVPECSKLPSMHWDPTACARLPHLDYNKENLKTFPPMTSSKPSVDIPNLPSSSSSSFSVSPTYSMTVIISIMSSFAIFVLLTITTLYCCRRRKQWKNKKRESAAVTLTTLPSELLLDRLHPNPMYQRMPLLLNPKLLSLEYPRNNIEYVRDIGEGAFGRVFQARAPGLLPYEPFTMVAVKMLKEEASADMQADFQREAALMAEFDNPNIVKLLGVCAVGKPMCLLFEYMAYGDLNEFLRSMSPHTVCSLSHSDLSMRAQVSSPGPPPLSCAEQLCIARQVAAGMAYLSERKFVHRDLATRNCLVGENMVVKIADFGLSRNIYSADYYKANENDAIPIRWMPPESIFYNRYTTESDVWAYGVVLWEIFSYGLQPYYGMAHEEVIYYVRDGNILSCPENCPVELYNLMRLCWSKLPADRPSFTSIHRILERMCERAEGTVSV
Experimental: as §1

PDGFR-b = PDGFR-b (Homo sapiens, UniProt P09619)
Experimental: as §1

SRC = SRC (Homo sapiens, UniProt P12931)
Experimental: as §1

TRKA = TRKA (Homo sapiens, UniProt P04629)
Experimental: as §1

Chain of LCK (P06239 whole entry, species assumed): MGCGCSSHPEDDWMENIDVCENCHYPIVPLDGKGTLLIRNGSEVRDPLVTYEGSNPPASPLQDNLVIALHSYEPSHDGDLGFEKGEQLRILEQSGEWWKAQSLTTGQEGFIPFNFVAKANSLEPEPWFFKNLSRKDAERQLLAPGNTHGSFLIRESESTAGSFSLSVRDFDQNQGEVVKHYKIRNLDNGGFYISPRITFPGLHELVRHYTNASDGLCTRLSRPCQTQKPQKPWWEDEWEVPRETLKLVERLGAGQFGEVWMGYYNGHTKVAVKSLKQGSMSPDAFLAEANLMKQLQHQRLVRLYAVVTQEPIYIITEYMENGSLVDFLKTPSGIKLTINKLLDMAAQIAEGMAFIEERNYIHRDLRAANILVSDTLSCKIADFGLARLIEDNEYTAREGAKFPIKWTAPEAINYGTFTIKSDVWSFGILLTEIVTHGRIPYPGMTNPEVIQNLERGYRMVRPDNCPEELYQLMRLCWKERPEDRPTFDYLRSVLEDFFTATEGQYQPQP
Chain of HIPK3 (Q9H422 whole entry, species assumed): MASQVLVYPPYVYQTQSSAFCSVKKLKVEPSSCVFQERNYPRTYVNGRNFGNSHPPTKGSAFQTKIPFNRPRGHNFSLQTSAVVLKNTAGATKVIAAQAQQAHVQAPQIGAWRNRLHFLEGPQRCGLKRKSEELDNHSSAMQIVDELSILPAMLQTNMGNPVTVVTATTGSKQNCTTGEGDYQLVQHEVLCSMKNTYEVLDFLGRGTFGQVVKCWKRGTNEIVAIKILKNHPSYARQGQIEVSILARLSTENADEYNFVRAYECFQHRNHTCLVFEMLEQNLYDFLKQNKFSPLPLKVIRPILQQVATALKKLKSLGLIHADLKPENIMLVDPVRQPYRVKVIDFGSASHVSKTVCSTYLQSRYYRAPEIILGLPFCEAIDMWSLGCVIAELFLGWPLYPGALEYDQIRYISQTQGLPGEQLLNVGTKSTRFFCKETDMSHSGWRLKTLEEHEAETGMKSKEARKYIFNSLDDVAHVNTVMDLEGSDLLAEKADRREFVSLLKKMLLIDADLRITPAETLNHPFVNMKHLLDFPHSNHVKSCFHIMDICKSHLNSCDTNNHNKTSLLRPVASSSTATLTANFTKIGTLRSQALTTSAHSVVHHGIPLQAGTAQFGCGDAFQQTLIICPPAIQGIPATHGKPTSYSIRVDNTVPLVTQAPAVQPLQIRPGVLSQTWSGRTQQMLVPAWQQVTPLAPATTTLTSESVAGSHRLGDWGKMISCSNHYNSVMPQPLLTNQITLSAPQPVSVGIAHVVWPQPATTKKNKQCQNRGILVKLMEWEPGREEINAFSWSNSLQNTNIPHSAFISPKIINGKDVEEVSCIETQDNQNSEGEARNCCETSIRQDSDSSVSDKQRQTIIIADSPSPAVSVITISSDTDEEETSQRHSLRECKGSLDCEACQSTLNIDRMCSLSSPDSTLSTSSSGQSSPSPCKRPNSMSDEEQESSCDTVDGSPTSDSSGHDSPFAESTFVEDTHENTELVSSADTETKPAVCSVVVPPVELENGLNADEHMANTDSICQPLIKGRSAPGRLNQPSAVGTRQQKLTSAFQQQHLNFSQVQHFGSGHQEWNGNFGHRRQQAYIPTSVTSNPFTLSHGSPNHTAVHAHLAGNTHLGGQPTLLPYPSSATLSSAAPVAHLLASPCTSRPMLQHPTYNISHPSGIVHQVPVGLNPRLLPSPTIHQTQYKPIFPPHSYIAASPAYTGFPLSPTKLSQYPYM
Chain of KIT (P10721 26-976, species assumed): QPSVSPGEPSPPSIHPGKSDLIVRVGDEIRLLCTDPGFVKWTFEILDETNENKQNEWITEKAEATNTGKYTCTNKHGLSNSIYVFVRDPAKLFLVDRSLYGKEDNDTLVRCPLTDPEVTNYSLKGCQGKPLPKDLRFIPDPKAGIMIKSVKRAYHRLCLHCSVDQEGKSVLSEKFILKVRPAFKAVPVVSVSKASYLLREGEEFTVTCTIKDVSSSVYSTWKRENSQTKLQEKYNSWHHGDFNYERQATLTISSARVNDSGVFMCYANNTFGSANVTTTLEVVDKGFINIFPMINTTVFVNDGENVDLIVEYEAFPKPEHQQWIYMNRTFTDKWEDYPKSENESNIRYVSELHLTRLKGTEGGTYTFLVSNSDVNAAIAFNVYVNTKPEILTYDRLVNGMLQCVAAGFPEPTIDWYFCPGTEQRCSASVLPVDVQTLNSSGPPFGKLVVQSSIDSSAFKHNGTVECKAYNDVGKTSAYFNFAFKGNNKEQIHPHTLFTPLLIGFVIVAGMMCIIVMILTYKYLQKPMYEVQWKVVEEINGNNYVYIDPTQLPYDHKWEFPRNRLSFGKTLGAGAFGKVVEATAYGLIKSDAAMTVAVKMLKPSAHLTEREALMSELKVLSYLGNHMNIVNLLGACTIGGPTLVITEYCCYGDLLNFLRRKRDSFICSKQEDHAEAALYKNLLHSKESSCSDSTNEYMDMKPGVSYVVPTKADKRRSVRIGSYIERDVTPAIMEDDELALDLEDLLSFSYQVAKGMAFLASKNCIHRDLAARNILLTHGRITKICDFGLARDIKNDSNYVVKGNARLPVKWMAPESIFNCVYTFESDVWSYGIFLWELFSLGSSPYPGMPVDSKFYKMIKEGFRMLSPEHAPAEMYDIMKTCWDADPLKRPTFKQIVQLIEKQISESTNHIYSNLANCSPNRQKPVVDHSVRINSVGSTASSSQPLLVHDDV
Chain of BRK (Q13882 whole entry, species assumed): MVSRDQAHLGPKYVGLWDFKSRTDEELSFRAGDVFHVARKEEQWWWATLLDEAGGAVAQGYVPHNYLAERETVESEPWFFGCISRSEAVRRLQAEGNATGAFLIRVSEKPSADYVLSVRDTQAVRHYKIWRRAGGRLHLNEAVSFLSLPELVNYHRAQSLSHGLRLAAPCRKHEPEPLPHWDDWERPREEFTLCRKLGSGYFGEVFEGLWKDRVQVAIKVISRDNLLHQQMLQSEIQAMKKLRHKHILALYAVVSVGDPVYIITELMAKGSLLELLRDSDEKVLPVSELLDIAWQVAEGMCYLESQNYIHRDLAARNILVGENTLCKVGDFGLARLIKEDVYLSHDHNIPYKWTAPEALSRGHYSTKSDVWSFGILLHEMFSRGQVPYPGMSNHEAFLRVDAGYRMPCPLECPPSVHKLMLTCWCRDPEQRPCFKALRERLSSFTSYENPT
Chain of SRC (P12931 whole entry, species assumed): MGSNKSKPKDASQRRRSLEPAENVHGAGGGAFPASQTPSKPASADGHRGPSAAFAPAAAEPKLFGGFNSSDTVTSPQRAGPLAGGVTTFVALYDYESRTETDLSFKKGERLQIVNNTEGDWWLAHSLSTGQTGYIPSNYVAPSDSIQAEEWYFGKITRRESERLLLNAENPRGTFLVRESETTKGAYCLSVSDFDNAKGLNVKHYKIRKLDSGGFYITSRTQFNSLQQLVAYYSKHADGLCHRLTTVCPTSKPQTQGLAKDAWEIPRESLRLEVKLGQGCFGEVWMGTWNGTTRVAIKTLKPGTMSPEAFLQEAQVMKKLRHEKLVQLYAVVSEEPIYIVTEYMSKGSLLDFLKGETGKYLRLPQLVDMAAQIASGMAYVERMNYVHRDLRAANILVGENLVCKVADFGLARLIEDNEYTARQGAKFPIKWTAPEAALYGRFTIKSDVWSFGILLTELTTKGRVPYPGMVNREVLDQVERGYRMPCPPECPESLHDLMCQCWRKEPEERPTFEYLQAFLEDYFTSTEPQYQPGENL
Chain of PDGFR-b (P09619 33-1106, species assumed): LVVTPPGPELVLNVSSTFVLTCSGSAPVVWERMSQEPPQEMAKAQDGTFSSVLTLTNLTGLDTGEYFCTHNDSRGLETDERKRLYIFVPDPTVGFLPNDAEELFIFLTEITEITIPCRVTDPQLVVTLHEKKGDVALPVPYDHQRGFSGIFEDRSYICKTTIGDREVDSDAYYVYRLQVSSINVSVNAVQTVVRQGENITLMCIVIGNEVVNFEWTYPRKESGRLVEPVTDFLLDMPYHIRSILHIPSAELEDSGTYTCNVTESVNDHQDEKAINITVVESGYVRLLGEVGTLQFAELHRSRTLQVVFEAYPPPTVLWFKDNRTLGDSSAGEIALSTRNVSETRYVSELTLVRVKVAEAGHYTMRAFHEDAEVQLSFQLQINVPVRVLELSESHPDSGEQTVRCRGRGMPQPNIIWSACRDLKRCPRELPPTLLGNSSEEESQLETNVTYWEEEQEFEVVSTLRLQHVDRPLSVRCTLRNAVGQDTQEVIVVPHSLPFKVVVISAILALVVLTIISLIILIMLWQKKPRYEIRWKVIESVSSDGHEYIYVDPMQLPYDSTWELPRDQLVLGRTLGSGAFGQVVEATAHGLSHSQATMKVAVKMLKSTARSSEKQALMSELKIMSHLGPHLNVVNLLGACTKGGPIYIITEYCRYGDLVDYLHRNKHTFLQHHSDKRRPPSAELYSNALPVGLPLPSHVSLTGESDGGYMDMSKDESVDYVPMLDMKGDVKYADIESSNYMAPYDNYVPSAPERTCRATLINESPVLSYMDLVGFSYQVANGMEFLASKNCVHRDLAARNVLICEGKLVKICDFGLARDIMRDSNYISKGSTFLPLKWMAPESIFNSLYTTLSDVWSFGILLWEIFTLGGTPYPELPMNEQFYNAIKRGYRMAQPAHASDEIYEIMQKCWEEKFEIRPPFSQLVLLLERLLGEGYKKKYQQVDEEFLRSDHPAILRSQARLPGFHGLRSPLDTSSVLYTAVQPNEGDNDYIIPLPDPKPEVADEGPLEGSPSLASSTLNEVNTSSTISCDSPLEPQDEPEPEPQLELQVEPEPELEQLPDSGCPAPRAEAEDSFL

inhibition at 5 µM (AXL)	inhibition at 5 µM (BRK)	inhibition at 5 µM (EPH-A4)	inhibition at 5 µM (HIPK3)	inhibition at 5 µM (KIT)	inhibition at 5 µM (LCK)	inhibition at 5 µM (MUSK)	inhibition at 5 µM (PDGFR-b)	inhibition at 5 µM (SRC)	inhibition at 5 µM (TRKA)	Structure (SMILES)
< 50%	< 50%	< 50%	50 to 79%	< 50%	< 50%	< 50%	< 50%	< 50%	50 to 79%	CNC(=O)c1cc(Oc2ccc(NC(=O)c3nc(NC)sc3-c3ccc(F)cc3F)cc2F)ccn1 [Compound 21]
50 to 79%	50 to 79%	50 to 79%	< 50%	50 to 79%	80 to 89%	< 50%	< 50%	< 50%	80 to 89%	CNC(=O)c1cc(Oc2ccc(NC(=O)c3nc(NC)sc3-c3ccc(F)cc3C)cc2F)ccn1 [Compound 23]
< 50%	< 50%	< 50%	50 to 79%	< 50%	50 to 79%	< 50%	< 50%	< 50%	50 to 79%	CNC(=O)c1cc(Oc2ccc(NC(=O)c3nc(OC)oc3-c3ccc(F)c(F)c3)cc2F)ccn1 [Compound 24]
< 50%	< 50%	< 50%	< 50%	< 50%	< 50%	< 50%	< 50%	< 50%	< 50%	CNC(=O)c1cc(Oc2ccc(NC(=O)c3nc(OC)oc3-c3ccc(F)s3)cc2F)ccn1 [Compound 25]
50 to 79%	90 to 94%	80 to 89%	50 to 79%	50 to 79%	90 to 94%	80 to 89%	< 50%	50 to 79%	80 to 89%	CNC(=O)c1cc(Oc2ccc(NC(=O)c3nc(C4CC4)oc3-c3ccc(F)cc3)cc2F)ccn1 [Compound 26]
< 50%	< 50%	< 50%	< 50%	< 50%	< 50%	< 50%	< 50%	< 50%	< 50%	CSc1nc(C(=O)Nc2ccc(Oc3ccnc(C(=O)NC4CNC4)c3)c(F)c2)c(-c2ccc(F)s2)o1 [Compound 27]
< 50%	< 50%	< 50%	< 50%	< 50%	< 50%	< 50%	< 50%	< 50%	< 50%	CSc1nc(C(=O)Nc2ccc(Oc3ccnc(C(=O)NC4COC4)c3)c(F)c2)c(-c2ccc(F)s2)o1 [Compound 28]
50 to 79%	≥ 95%	50 to 79%	80 to 89%	< 50%	< 50%	< 50%	< 50%	< 50%	< 50%	CSc1nc(C(=O)Nc2ccc(Oc3ccnc(C(=O)NC4CNC4)c3)c(F)c2)c(-c2ccc(F)cc2)o1 [Compound 29]
50 to 79%	≥ 95%	90 to 94%	90 to 94%	50 to 79%	80 to 89%	80 to 89%	< 50%	50 to 79%	90 to 94%	CNC(=O)c1cc(Oc2ccc(NC(=O)c3nc(COC)oc3-c3ccc(F)cc3)cc2F)ccn1 [Compound 30]
< 50%	80 to 89%	< 50%	< 50%	< 50%	< 50%	< 50%	< 50%	< 50%	< 50%	CSc1nc(C(=O)Nc2ccc(Oc3ccnc(C(=O)NC4COC4)c3)c(F)c2)c(-c2ccc(F)cc2)o1 [Compound 31]
80 to 89%	≥ 95%	50 to 79%	50 to 79%	< 50%	80 to 89%	< 50%	< 50%	50 to 79%	50 to 79%	CNC(=O)c1cc(Oc2ccc(NC(=O)c3nc(OC4CC4)oc3-c3ccc(F)cc3)cc2F)ccn1 [Compound 32]
< 50%	50 to 79%	< 50%	50 to 79%	< 50%	50 to 79%	< 50%	< 50%	< 50%	50 to 79%	[2H]C([2H])([2H])NC(=O)c1cc(Oc2ccc(NC(=O)c3nc(SC)oc3-c3ccc(F)c(F)c3)cc2F)ccn1 [Compound 33]
50 to 79%	90 to 94%	90 to 94%	< 50%	50 to 79%	80 to 89%	< 50%	< 50%	80 to 89%	80 to 89%	CNC(=O)c1cc(Oc2ccc(NC(=O)c3nc(SC(C)C)oc3-c3ccc(F)cc3)cc2F)ccn1 [Compound 34]
< 50%	< 50%	< 50%	< 50%	< 50%	< 50%	< 50%	< 50%	< 50%	< 50%	[2H]C([2H])([2H])NC(=O)c1cc(Oc2ccc(NC(=O)c3nc(SC)oc3-c3ccc(F)s3)cc2F)ccn1 [Compound 35]
< 50%	< 50%	< 50%	50 to 79%	< 50%	< 50%	< 50%	< 50%	< 50%	< 50%	CNC(=O)c1ccc(Oc2ccc(NC(=O)c3nc(Cl)oc3-c3ccc(F)cc3)c(F)c2)cn1 [Compound 36]
